Test results as given in patent US20090325270A1, “USE OF 2-HYDROXY-5-OXOPROLINE IN CONJUNCTION WITH ALGAE” (priority 2008, published 2009).

Test system: pale-green mutant Nannochloropsis
Assay: Growth of algae cultures treated with 2-hydroxy-5-oxoproline (Example One, FIG. 3)
Type: cell-based
Source text: At step 130, the pale-green mutant Nannochloropsis may be cultivated in an aqueous environment having an effective amount of 2-hydroxy-5-oxoproline. The effective amount of 2-hydroxy-5-oxoproline may increase the growth rate of the pale-green mutant Nannochloropsis.
1. Light intensity was 600 micro-Einsteins.
2. Temperature was held constant at 25 C.
3. Cultures were inoculated to the same extent (as determined by optical density at […], O.D. 750).
4. The bicarb controls were used because the AB1 chemical, which is the 2-hydroxy-5-oxoproline compound, was dissolved in a bicarbonate buffer. This control was to make sure that differences in growth were not due to the presence of bicarbonate. The bicarb controls contain the same concentration of bicarbonate as the AB1 flasks.
5. The cultures were grown on urea as the nitrogen-source.
The bicarb controls were inoculated with 10 mls of 1.3 M bicarbonate solution (pH 9.5). The AB-1 treated cultures had approximately 0.1 g of 2-hydroxy-5-oxoproline added with the algal inoculum. No treat 2 had approximately 50% more cells inoculated as no treat 1, bicarb 1 and 2 and the AB-1 cultures. […] The difference in slope between the AB-1 cultures and the no-treat 1 and bicarb controls was approximately 50%-60%. Therefore, by feeding 2-hydroxy-5-oxoproline to pale-green mutant Nannochloropsis, a greater growth rate could be achieved, which would allow high cell density cultures to be produced quicker, so the advantages of the pale-green phenotype over the wild-type become apparent.

## O=C1CC[C@@](O)(C(=O)O)N1 [AB-1, 2-hydroxy-5-oxoproline]
Approximately 0.1 g 2-hydroxy-5-oxoproline added with inoculum to 800 mls media, approximately 300 hours, constant illumination 600 micro-Einsteins, 25 C, urea as nitrogen-source
  difference in slope (growth) between the AB-1 cultures and the no-treat 1 and bicarb controls: 50%-60%
Approximately 0.1 g 2-hydroxy-5-oxoproline in 800 mls media, approximately 300 hours
  growth compared with no treat 2 (approximately 50% more cells inoculated): grew as if they had been inoculated with more cells than had actually been added
As measured by absorbance at 750 nm, effective amount of 2-hydroxy-5-oxoproline
  faster growth than culture without 2-hydroxy-5-oxoproline: fifty to sixty
